{
  "source": "patent US20110092532A1",
  "about": "(priority 2009, published 2011)",
  "origin": "cited, not measured here",
  "key": {"[1]": {"details": "rats, after oral ingestion, portal vein not shunted"}, "[2]": {"test_system": "patients with motor fluctuations"}, "healthy volunteers": {"test_system": "healthy volunteers", "details": "healthy male volunteers, no anti-emetic drugs"}, "Cat": {"test_system": "Cat", "details": "subcutaneous"}, "Dog": {"test_system": "Dog", "details": "in vivo, sc"}, "[3]": {"details": "SL apomorphine, three patients with motor fluctuations"}},
  "note": "Read-outs that look alike come from different tables or passages of the source.",
  "data": [
    {"smiles": "CN1CCc2cccc3c2[C@H]1Cc1ccc(O)c(O)c1-3", "note": "[apomorphine]", "values": [
      {"measurement": "tissue levels of apomorphine", "setting": "[1]", "value": "not detectable"},
      {"measurement": "duration of effect", "setting": "[2]; [3]", "value": "15 to 100", "unit": "min"},
      {"measurement": "latency to effect", "setting": "[2]; [3]", "value": "20 to 40", "unit": "min"},
      {"measurement": "\"off\" periods", "setting": "[2]; one patient, SL apomorphine as adjunct with levodopa, during one month", "value": "large decrease"},
      {"measurement": "Tmax", "setting": "intranasal route", "value": 23, "unit": "min"},
      {"measurement": "lag time", "setting": "intranasal route", "value": 2.8, "unit": "min"},
      {"measurement": "Tmax", "setting": "subcutaneous route", "value": 18, "unit": "min"},
      {"measurement": "lag time", "setting": "subcutaneous route", "value": 3.9, "unit": "min"},
      {"measurement": "amount of intravenous apomorphine which will reliably induce emesis", "setting": "healthy volunteers", "value": 2.5, "unit": "mg"},
      {"measurement": "Reversible Toxicity Seen", "setting": "Cat", "value": 136, "unit": "mg/kg"},
      {"measurement": "Reversible Toxicity Seen", "setting": "Dog", "value": "36 to 71", "unit": "mg/kg"}
    ]}
  ]
}
